From patent US20240285808A1, “MOLECULAR PROBES FOR IN VIVO DETECTION OF ALDEHYDES” (The General Hospital Corporation, priority 2021, published 2024)
Values joined by “and” are separate entries in the source; they are usually repeats but may differ in a detail not shown here. Equal values may be shown once. “Also recorded” adds a separate entry of the source.

How the values were obtained:
[1] = tested on: bleomycin-injured mice (pulmonary fibrosis); test: EGCG treatment of bleomycin-injured mice monitored with Gd-9 MRI; format: in vivo, mouse
Protocol: Gd-9 is a Gd-DOTA derivative with two hydrazine arms synthesized by amide coupling of two tBu-piperazin-1-ylcarbamate groups to 1,4,7,10-tetraazacyclododecane-1,4-bis(tBu-acetate)-4,10-bis(glutaric acid 1-tBu ester), followed by acid deprotection and gadolinium complexation. C57Bl/6 adult male mice at 8 weeks of age received a single intratracheal dose of bleomycin, 1 U/kg body weight (50 μL total volume) as previously described. Pair-wise imaging study of GdCHyd and Gd-9 was carried out in mice at day 14 post bleomycin injury on a 4.7 T MRI with a dose of 100 μmol/kg of each probe. For the treatment study, mice were imaged first at day 10 post bleomycin injury, then treated daily with oral gavage of either epigallocatechin gallate (EGCG, 100 mg/kg) or PBS (vehicle) for 11 days. At day 21 post bleomycin injury, the animals were imaged again. MRI consisted of T1-weighted UTE (TR/TE/flip angle=4 ms/0.011 ms/15°) images acquired prior to and up to 30 minutes following intravenous administration of Gd-9 ([…]). Following the second imaging session, animals were euthanized (60 minutes post injection), and lung tissues were removed for further analysis.
The dual hydrazine probe Gd-9 was first compared to GdCHyd in a head-to head comparison in vivo. Mice were imaged 14 days after bleomycin injury first with Gd-CHyd and then 4 h later with Gd-9. […] Gd-9 was nexted used to monitor response to EGCG treatment in bleomycin-injured mice. Mice were imaged at 10 days after bleomycin injury and then the mice were treated with EGCG (100 mg/kg) or PBS (vehicle) for 11 days, and then the mice were imaged again (FIG. 14).

[2] = Reaction rates with 2-formylpyridine measured by HPLC-ICP-MS (Method A); format: physicochemical; conditions: Method a: 2-formylpyridine 1000 μM, probe 25 μM, pH 7.40 PBS
Protocol: Quantitative Measurement of Reaction Rates with Aldehydes: Method A: Reaction Rates of Compounds with 2-Formylpyridine Measured by HPLC-ICP-MS
Reactivity of aldehyde-binding probes were assessed in pH 7.40 phosphate-buffered saline under pseudo-first order conditions with 2-formylpyridine concentration of 1000 μM and probes at 25 μM. Concentrations of unreacted starting material and condensation products were determined at 12 min time intervals based on their relative integrations. The values were fit to a standard first order rate constant linear equation and the rate constant was extracted from the slope.

[3] = Relaxivity measurements in PBS; format: physicochemical; conditions: 1.4 T, 37° C.
Protocol: (§1) BSA-ALD (10 mg/mL) or BSA (10 mg/mL) were treated for 24 hours at 37° C. with the corresponding Gd or Mn complex at a range of concentrations (0.01-0.2 mM), with a total volume of 300 μL maintained for all samples. After 24 hours, an aliquot of the solution (50 μL) was used for longitudinal (T1) relaxation measurements, recorded using a Bruker mq60 Minispec at 1.41 T and 37° C. Longitudinal (T1) relaxation times were measured via an inversion recovery experiment using 10 inversions of duration ranging between 0.05×T1 and 10×T1. Solutions (concentration range: 0.1 mM-1.0 mM) in PBS were run in parallel. To measure the relaxivity of BSA-bound species, sodium cyanoborohydride (10 mg) was added to the solution to irreversibly bind the probe to the protein. After a further 2h incubation at 37° C., protein-bound and protein-free solutions were separated by ultrafiltration. Then 200 μL PBS was added to the residue to dissolve the protein. Longitudinal (T1) relaxation times for the bounded species were measured using a Bruker mq60 Minispec at 1.41 T and 37° C. After the measurement, concentration of corresponding metal ion (Gd/Mn) in the residue and filter were both determined using an Agilent 8800 ICP-MS system. Relaxivity (r1) was determined from the slope of a plot of 1/T1 vs metal concentration for 5 concentrations.

[4] = target: bovine serum albumin (BSA) (Bos taurus, UniProt P02769); test: Relaxivity measurements with BSA; format: binding; conditions: 1.4 T, 37° C., BSA 10 mg/mL
Protocol: as §1

[5] = target: T1, BSA-ALD (oxidized bovine serum albumin containing allysine aldehyde groups) (Bos taurus, UniProt P02769); test: Relaxivity measurements with BSA-Ald; format: binding; conditions: 37° C.; for r1, +BSA-Ald / r1, Bound to BSA-Ald: 1.4 T; for r1, +BSA-Ald: BSA-Ald 10 mg/mL; for r1, Bound to BSA-Ald: protein-bound species after NaBH3CN and ultrafiltration
T1 construct: made in house; host or cells: no expression host: BSA oxidised chemically with sodium ascorbate, ferric chloride and H2O2, then desalted on PD-10
Protocol: Preparation of Allysine Containing Bovine Serum Albumin, BSA-ALD:
To a solution of bovine serum albumin (BSA) (100 mg) dissolved in phosphate buffered saline (4 mL, pH 7.4, 0.25 mM), sodium ascorbate (20 mg), ferric chloride (120 μL, 10 mM) and 20 μL H2O2 (30% w) were added. The reaction was stirred at 37° C. for 24 hours, and sodium ascorbate (20 mg) was added repeatedly every 8 hours. After the reaction, protein was purified using PD-10 Sephadex G25 desalting columns (GE Healthcare), eluted with PBS. Protein concentration was assessed using the ‘BCA Protein Assay Kit’ (Thermo Scientific). Protein carbonyl concentration was determined by ‘Protein Carbonyl Content Assay Kit’ (Sigmal-Aldrich).
(§2) Alternatively, preparation of BSA^Ald and binding of Gd^3+ probe to protein was carried out according to modified procedures. To a solution of bovine serum albumin (BSA) (100 mg) dissolved in phosphate buffered saline (4 mL, pH 7.4, 0.25 mM) was added sodium ascorbate (20 mg), ferric chloride (120 μL, 10 mM) and 20 μL H2O2 (30% w). The reaction was stirred at 37° C. for 24 h, and sodium ascorbate (20 mg) was added repeatedly every 8 h. After 24 h, the protein was purified using PD-10 Sephadex G25 desalting columns (GE Healthcare), eluted with PBS. Protein concentration was assessed using the ‘Micro BCA Protein Assay Kit’ (Thermo Scientific, 23235). Protein carbonyl concentration was determined by ‘Protein Carbonyl Content Assay Kit’ (Sigma-Aldrich, MAK094-1KT). […] The protein solutions were kept at a concentration of 20 mg/mL for further use.
as §1

BSA-ALD = target: T2, BSA-ALD (Bos taurus, UniProt P02769); test: Binding yield measurements of Gd^3+ complex with BSA^Ald (ultrafiltration, ICP-MS); set-up: species or system bovine; conditions: pH 7.4, PBS, 37° C., 12 h, ultrafiltration 5,000 Da cut-off
T2 construct: made in house; host or cells: no expression host: BSA oxidised chemically with sodium ascorbate, ferric chloride and H2O2, then desalted on PD-10
Protocol: FIG. 48. […] Binding concentration of the probes to BSA^Ald (pH 7.4, PBS, 37° C., 12 h) as determined by ICP-MS following an ultrafiltration (5,000 Da cut-off) to separate the protein-bound probe from the unbound probe. Slope gives the binding yield.
as §2

[6] = tested on: ECM proteins from fibrotic rat liver; test: Relaxivity measurements in ECM; format: binding
Protocol: Liver fibrosis was induced in male Sprague Dawley rats by ligation of the common bile duct (CD®, Charles River Labs, Wilmington, MA). Ten days after common bile duct ligation, the fibrotic liver was harvested and sequential extractions were performed using the CNMCS (Cytosol/Nucleus/Membrane/Cytoskeleton) Compartmental Protein Extraction kit (Cytomol, Union City, CA) according to manufacturer's instructions. In brief, frozen tissues (150-200 mg) were homogenized and with solvents provided in the kit to sequentially to remove: cytosolic proteins, nuclear proteins, membrane proteins, and cytoskeletal proteins, leaving a final insoluble fraction enriched for ECM proteins.
Relaxivity Measurements in ECM
The enriched ECM proteins from 800 mg of fibrotic rat liver were suspended in 1 ml PBS. The ECM protein concentration was about 10% (5 mg in a 50 μL aliquot determined by weight after lyophilization). An aliquot of the solution (50 μL) was treated for 2 h at 37° C. with the corresponding molecular probe at a range of concentrations (0.01-0.1 mM) and then longitudinal (T1) relaxation measurements was recorded using a Bruker mq60 Minispec at 1.41 T and 37° C. For the blocking experiment with N2H4, a 100 fold-excess of N2H4 referred to the concentration of molecular probe was added to the solution before the incubation. Longitudinal (T1) relaxation times were measured via an inversion recovery experiment using 10 inversions of duration ranging between 0.05×T1 and 10×T1. Relaxivity (r1) was determined from the slope of a plot of 1/T1 vs metal concentration for 4 concentrations.

[7] = Reaction rates with butyraldehyde measured by HPLC-ICP-MS (Method B); format: physicochemical; conditions: Method b: butyraldehyde 100 μM, probe 25 μM, pH 7.40
Protocol: Method B: Reaction Rates of Compounds with Butyraldehyde Measured by HPLC-ICP-MS
The reactions were conducted in pH 7.40 phosphate-buffered with butyraldehyde concentration of 100 μM and hydrazine probes at 25 μM. Concentrations of unreacted starting material and condensation products were determined at 10 min time intervals over 2 hours based on their relative integrations. The values were fit to a standard first order rate constant linear equation and the rate constant was extracted from the slope.
Reaction with Butyraldehyde Monitored by HPLC-ICP-MS
Reactions were conducted in pH 7.4 phosphate-buffered saline with butyraldehyde concentration of 100 μM and hydrazine probes at 25 μM. Concentrations of unreacted starting material and condensation products were determined based on their relative integrations at 12 min time intervals over 2 hours.

[8] = Biodistribution of manganese in healthy mice 60 minutes post-injection; format: in vivo, mouse; conditions: 0.1 mmol/kg i.v.
Excerpt: To meet these requirements, the probes Mn-12, Mn-13 and Mn-14 were designed based on the stable Mn-1,4-DO2A chelate. […] This combination of stability, turn-on relaxivity, and low uptake in healthy liver indicate that Mn-12 is quite promising as a novel probe for liver fibrogenesis detection.

[9] = EGCG 100 mg/kg oral gavage daily for 11 days vs vehicle

T1 sequence (P02769 25-607): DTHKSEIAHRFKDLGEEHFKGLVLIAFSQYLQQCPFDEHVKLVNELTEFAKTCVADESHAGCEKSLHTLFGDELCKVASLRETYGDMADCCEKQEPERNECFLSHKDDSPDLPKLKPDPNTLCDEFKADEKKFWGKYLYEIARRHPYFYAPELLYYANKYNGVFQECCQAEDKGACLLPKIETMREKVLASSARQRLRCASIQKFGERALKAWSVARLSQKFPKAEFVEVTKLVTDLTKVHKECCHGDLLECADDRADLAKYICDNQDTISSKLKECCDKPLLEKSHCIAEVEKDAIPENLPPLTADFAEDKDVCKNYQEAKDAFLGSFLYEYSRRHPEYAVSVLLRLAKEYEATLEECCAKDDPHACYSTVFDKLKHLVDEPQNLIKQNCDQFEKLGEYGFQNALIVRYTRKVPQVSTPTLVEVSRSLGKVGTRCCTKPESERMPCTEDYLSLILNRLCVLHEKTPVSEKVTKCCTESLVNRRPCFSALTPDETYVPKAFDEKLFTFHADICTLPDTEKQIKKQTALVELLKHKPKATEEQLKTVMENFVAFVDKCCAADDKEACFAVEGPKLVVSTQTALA
Sequence of bovine serum albumin (BSA) (P02769 25-607): as above
T2 sequence (P02769 25-607): as above

Compound: O=C(O[C@@H]1Cc2c(O)cc(O)cc2O[C@@H]1c1cc(O)c(O)c(O)c1)c1cc(O)c(O)c(O)c1 [EGCG, epigallocatechin gallate]
- lung to muscle ΔCNR after Gd-9 injection, day 21 vs day 10 ([1]; EGCG 100 mg/kg oral gavage daily for 11 days): significantly decreased
- lung allysine content [1, 9]: significantly reduced
- lung hydroxyproline (total collagen) [1, 9]: reduced

Compound: NN1CCN(C(=O)CCOCCOCCOCCOCCNC(=O)CN2CCN(CC(=O)[O-])CCN(CC(=O)[O-])CC2)CC1.[Ga+3] [Ga-1]
- k (second order rate constant) [2]: 0.06 M⁻¹ s⁻¹

Compound: NC(Cn1cccc1)C(=O)NCCOCCOCCOCCNC(=O)CN1CCN(CC(=O)[O-])CCN(CC(=O)[O-])CC1.[Ga+3] (stereo not shown) [Ga-2]
- k (second order rate constant) [2]: 0.11 M⁻¹ s⁻¹

Compound: O=C([O-])CN1CCN(CC(=O)[O-])CCN(CC(=O)NCCOCCOCCOCCNC(=O)CN2C(=O)CSC2=S)CC1.[Ga+3] [Ga-4]
- k (second order rate constant) [2]: 0.34 M⁻¹ s⁻¹

Compound: NN1CCN(C(=O)CCC(C(=O)[O-])N2CCN(CC(=O)[O-])CCN(CC(=O)[O-])CCN(C(CCC(=O)N3CCNCC3)C(=O)[O-])CC2)CC1.[Gd+3] (stereo not shown) [Gd-11]
- r1, PBS [3]: 6.2 mM⁻¹ s⁻¹
- r1, +BSA [4]: 6.2 mM⁻¹ s⁻¹
- r1, +BSA-Ald [5]: 7.6 mM⁻¹ s⁻¹
- r1, Bound to BSA-Ald [5]: 13.7 mM⁻¹ s⁻¹ and 13.8 mM⁻¹ s⁻¹
- increase of r1 in BSA^Ald compared to PBS value ([5]; 1.41 T): 23%
- equilibrium binding to BSA^Ald (binding yield) (BSA-ALD): 19.2%
- relaxivity in ECM ([6]; PBS, pH 7.4, 2 h, 37° C., 1.41T): 6.7 mM⁻¹ s⁻¹
- relaxivity in ECM with 100-fold excess of hydrazine ([6]; aldehydes blocked with N2H4): 6.1 mM⁻¹ s⁻¹

Compound: CCCCN1CCN(CCCC(=O)N2CCN(N)CC2)CCN(CC(=O)[O-])CCN(CC(=O)[O-])CC1.[Mn+2] [Mn-13]
- k (second order rate constant) [7]: 1.9 M⁻¹ s⁻¹
- r1, PBS [3]: 1.6 mM⁻¹ s⁻¹
- r1, +BSA [4]: 1.9 mM⁻¹ s⁻¹
- r1, +BSA-Ald [5]: 2.3 mM⁻¹ s⁻¹
- r1, Bound to BSA-Ald [5]: 6.2 mM⁻¹ s⁻¹
- Mn liver levels in healthy mice [8]: high Mn liver levels; also recorded: elevated levels

Compound: NNC(=O)CCCN1CCN(CCCC(=O)NN)CCN(CC(=O)[O-])CCN(CC(=O)[O-])CC1.[Mn+2] [Mn-14]
- k (second order rate constant) [7]: 1.4 M⁻¹ s⁻¹
- r1, PBS [3]: 1.5 mM⁻¹ s⁻¹
- r1, +BSA [4]: 1.8 mM⁻¹ s⁻¹
- r1, +BSA-Ald [5]: 2.5 mM⁻¹ s⁻¹
- r1, Bound to BSA-Ald [5]: 7.3 mM⁻¹ s⁻¹
